Laboratory results as given in patent EP0528615A1, “Cribrostatins 1 and 2” (ARIZONA BOARD OF REGENTS, priority 1991, dated 1993).
In brackets after ≈: the same amount, converted by molar mass.

Legend:
[1] = test system: NCI human cancer cell lines; test: NCI human cancer cell lines, cytostatic activity (general statement); format: cell-based
Source text: (§1) Presently the Cribrochalina sp. constituents are undergoing detailed antineoplastic evaluation. […] (See: Boyd, status of the NCI preclinical antitumor drug discovery screen: implications for selection of new agents for clinical trial. In: DeVita et al., Principles and Practices of Oncology, update series, Vol. 3, No. 10, Lippincott, Philadelphia 1989, pp1-12; and Boyd et al., Data display and analysis strategies from NCI disease oriented in vitro antitumor drug screen. In:Valeriote et al., Antitumor Drug Discovery and Development, Kluwer Academic Press, Amsterdam, 1990.) The human tumor cell line panel currently used for these studies consists of a diverse array of 60 different cell lines representing eight major cancer subtypes.

[2] = test system: melanoma cancer line (LOX-1MCI; MALME-3M; M14; M19-MEL; SK-MEL-2; KS-MEL-28; SK-MEL-5; UACC_257; UACC-62); format: cell-based, human
Source text: as §1

colon cancer (CoLo 205) = test: NCI panel cell lines, colon cancer; format: cell-based, human
Source text: as §1

[3] = test system: P388 murine lymphocytic leukemia; test: in vitro PS leukemia cell growth inhibition (NCI P388 protocol); format: cell-based; details: Mus musculus, isolated pure compounds, read-out: PS ED₅₀
Source text: In early research devoted to the first systematic investigation of marine animals as new sources of potential anticancer drugs the phylum Porifera rapidly became of increasing importance. Subsequent detection of antineoplastic activity in some of these sponge species led to the isolation of such cell growth inhibitory compounds, as macrocyclic lactones, pyrroles, peptides, and proteins. Meanwhile the isolation of heterocyclic marine sponge constituents such as pyrroles, imidazoles, oxazoles, indoles, pyridines, quinolizidines, pteridines, acridines, other nitrogen systems and quinones has been rapidly accelerating. So far ten isoquinolinequinones have been isolated from blue species of the sponge genera Reniera and Xestospongia. In 1986 an exploratory survey of marine Porifera off remote islands in the Republic of the Maldives was conducted which located a deep blue colored specimen of Cribrochalina sp. (Haplosclerida order) that afforded an orange ethanol extract. The encrusting sponge was found in areas of strong (and dangerous) currents to -45m in the South side of East reef passages and yielded and ethanol extract that provided 40% life extension (at mg/kg) against the U.S. National Cancer Institute's in vivo murine P388 lymphocytic leukemia (PS system). […]

[4] = test system: non-small lung cancer (A549/ATCC, HOP-18, and NCI-H460); test: NCI panel cell lines, non-small lung cancer; format: cell-based, human; details: non-small lung cancer (A549/ATCC, HOP-18, NCI-H460)
Source text: as §1

CC1=C(N)C(=O)c2c(ccnc2C)C1=O [Cribrostatin 1]
cytostatic properties [1]: cytostatic properties | LC₅₀ [2]: 10⁻⁵ - 10⁻⁶ | sensitivity relative to panel mean ([2]; all nine melanoma lines of the 60 cell line panel): sensitivity greater than the panel mean | result in NCI panel cell line ([2]; melanoma (MALME-3M, M14, M19-MEL, SK-MEL-2, SK-MEL-28, UACC-257, UACC-62)): especially favorable results | result in NCI panel cell line (colon cancer (CoLo 205)): especially favorable results | IC50 [3]: 1.58 µg/mL (≈ 7.81 µM) | result in NCI panel cell line [4]: especially favorable results

CCOC1=C(C)C(=O)c2cc(=O)n(C)cc2C1=O [Cribrostatin 2]
cytostatic properties [1]: cytostatic properties | IC50 [3]: 2.73 µg/mL (≈ 11 µM)
